The results in this text go back to patent US7563793B2, “Pyrrolo[1,2-a]quinoxalin-5-(4H)-yl)sulfonyls and carbonyls and their use as estrogenic agents” (Wyeth, priority 2004, dated 2009).

In one test the test system is ER/Nf-kB. The test can be described thus: ER/NF-κB luciferase reporter assay in Ad5-wt-ER infected HAECT-1 cells (IL-1β induced). In kind it is cell-based, human. The following applies: for ER/Nf-kB Efficacy: relative to maximal inhibition observed with E2. The procedure: (§1) After four hours, cells were washed with EBM-BSA and incubated overnight in the same medium. […] After two hours, cells were washed and incubated at 34° C. for 1 hour. […] Control (no ER infection) cells were processed as above without Ad5-wt-hERα virus infection. […] Cells were subsequently washed with 300 μl of Dulbecco's phosphate buffered saline and lysed in 50 μl of Cell Culture Lysis Reagent (Promega). Luciferase was determined on a Wallac Victor^2 Luminometer (Gaithersburg, Md.) using 10 μl of lysate and mixing with 100 lμof Promega Luciferase Assay reagent. […] For IC50 and EC50 calculations, mean IL-6, luciferase or CK values versus log10 of the compound concentration were fitted to a four parameter logistic equation. The IC50/EC50 value, ‘Hill slope’, upper and lower limits of the curve were iteratively estimated.

The test system of a further test is creatine kinase. The test can be described thus: Creatine kinase assay in Ad5-wt-ER infected HAECT-1 cells. In kind it is cell-based, human. The following applies: for CK Efficacy: relative to maximal stimulation observed with E2. The procedure:
as §1

The structures appear in SMILES notation. pEC50, pIC50: −log10 of the molar value. Like-named read-outs stand apart in the source and are kept apart here.

Turning to `C[C@]12CC[C@@H]3c4ccc(O)cc4CC[C@H]3[C@@H]1CC[C@@H]2O` [Example E2, 17β-estradiol, reference compound], in the test on ER/Nf-kB (Homo sapiens, HAECT1), the pIC50 was 8.77. For the same molecule, the “ER/Nf-kB Efficacy” value in the test on ER/Nf-kB stood at 100%. Besides, the pEC50 in the test on creatine kinase (Homo sapiens, HAECT1, CK stimulation, N/O = activity not observed at concentrations tested, read-out: CK IC50) is 8.24. The Emax in the test on creatine kinase (Homo sapiens, HAECT1, relative to maximal stimulation observed with E2, read-out: CK Efficacy) is 100%.
For `CC1c2cccn2-c2ccc(F)cc2N1S(=O)(=O)c1ccc(O)cc1` (stereo not shown) [Example 49, 4-[(7-fluoro-4-methylpyrrolo[1,2-a]quinoxalin-5-(4H)-yl)sulfonyl]phenol], in the test on ER/Nf-kB, the pIC50 is 7.17 and the “ER/Nf-kB Efficacy” value stood at 85%. Also, the “CK Efficacy” value with creatine kinase was found to be 19%.
As for `CCC1c2ccc(Br)n2-c2ccc(F)cc2N1S(=O)(=O)c1ccc(O)c(C)c1` (stereo not shown) [Example 29, 4-[(1-bromo-4-ethyl-7-fluoropyrrolo[1,2-a]quinoxalin-5-(4H)-yl)sulfonyl]-2-methylphenol], in the test on ER/Nf-kB, the pIC50 is 6.23 and the “ER/Nf-kB Efficacy” value is reported as 100%. Besides, in the test with creatine kinase, the “CK Efficacy” value turned out to be 28%.
In the case of `CC1(C)c2cccn2-c2ccc(Br)cc2N1S(=O)(=O)c1ccc(O)cc1` [Example 41, 4-[(7-bromo-4,4-dimethylpyrrolo[1,2-a]quinoxalin-5-(4H)-yl)sulfonyl]phenol], in the test with ER/Nf-kB, the pIC50 is 6.66 and the “ER/Nf-kB Efficacy” value was 109%. Also, in the test on creatine kinase, the “CK Efficacy” value came out at 35%.
In the same order, the values of `CCC1c2cccn2-c2cc(F)c(F)cc2N1S(=O)(=O)c1ccc(O)c(C)c1` (stereo not shown) [Example 5, 4-[(4-ethyl-7,8-difluoropyrrolo[1,2-a]quinoxalin-5-(4H)-yl)sulfonyl]-2-methylphenol] are 7.09, 99% and 37%.
With `CCC1c2cccn2-c2ccc(Br)cc2N1S(=O)(=O)c1ccc(O)c(C)c1` (stereo not shown) [Example 46, 4-[(7-bromo-4-ethylpyrrolo[1,2-a]quinoxalin-5-(4H)-yl)sulfonyl]-2-methylphenol], in the test with ER/Nf-kB, the pIC50 is 7.21 and the “ER/Nf-kB Efficacy” value turned out to be 108%. For the same molecule, in the test on creatine kinase, the “CK Efficacy” value is 43%.
Turning to `CC1c2ccc(F)n2-c2cc(F)c(F)cc2N1S(=O)(=O)c1ccc(O)cc1` (stereo not shown) [Example 13, 4-[(1,7,8-trifluoro-4-methylpyrrolo[1,2-a]quinoxalin-5-(4H)-yl)sulfonyl]phenol], in the test with ER/Nf-kB, the pIC50 is 7.70 and the “ER/Nf-kB Efficacy” value turned out to be 104%.
In the same order, the values of `Cc1cc(S(=O)(=O)N2c3cc(F)ccc3-n3cccc3C2C)ccc1O` (stereo not shown) [Example 51, 4-[(7-fluoro-4-methylpyrrolo[1,2-a]quinoxalin-5-(4H)-yl)sulfonyl]-2-methylphenol] are 6.81 and 66%.
Turning to `CC1(C)c2cccn2-c2cc(F)c(F)cc2N1S(=O)(=O)c1ccc(O)cc1` [Example 15, 4-[(7,8-difluoro-4,4-dimethylpyrrolo[1,2-a]quinoxalin-5-(4H)-yl)sulfonyl]phenol], in the test on ER/Nf-kB, the pIC50 was 6.82 and the “ER/Nf-kB Efficacy” value was found to be 105%.
For `CC1c2cccn2-c2ccc(Br)cc2N1S(=O)(=O)c1ccc(O)cc1` (stereo not shown) [Example 52, 4-[(7-bromo-4-methylpyrrolo[1,2-a]quinoxalin-5-(4H)-yl)sulfonyl]phenol] the same measures were 7.96 and 100%.
In the same order, the values of `CCC1c2cccn2-c2ccc(F)cc2N1S(=O)(=O)c1ccc(O)c(Cl)c1` (stereo not shown) [Example 31, 2-chloro-4-[(4-ethyl-7-fluoropyrrolo[1,2-a]quinoxalin-5-(4H)-yl)sulfonyl]phenol] are 6.44 and 104%.
As to `CCC1c2cccn2-c2ccc(C(F)(F)F)cc2N1S(=O)(=O)c1ccc(O)cc1` (stereo not shown) [Example 56, 4-{[4-ethyl-7-(trifluoromethyl)pyrrolo[1,2-a]quinoxalin-5-(4H)-yl]sulfonyl}phenol], in the test with ER/Nf-kB, the pIC50 is 7.10 and the “ER/Nf-kB Efficacy” value worked out at 107%.
